Results taken from US20100035755A1, “METHOD OF CONTROLLING WEEDS IN A TURF GRASS BY USING SULFONYLUREA COMPOUNDS” (Moghu Research Center Ltd., priority 2008, published 2010).
Entries after “also recorded” stand apart in the source; their conditions may differ.

How the values were obtained:
[1] = tested on: Bentgrass; experiment: Turf grass selectivity, greenhouse pot test; format: in vivo, Agrostris palustris
Source text: Turf mats of Zoysia grass, bentgrass, Kentucky bluegrass, or perennial rye grass known as cool season turfgrass or western grass were purchased and cut into a piece having 10 cm×20 cm size. Then, each piece was transplanted in a rectangular plastic pot (surface area of 300 cm^2) in which sandy loam and mixed top soil (Boo-Nong Top Soil No. 3, for horticultural use) are filled in 1:1 ratio. After the transplantation, the grasses were cut once a week to maintain the blade height at 0.5-1.0 cm and cultivated for one month in a green house of which temperature was kept at 25˜30° C. for daytime and 15˜25° C. for nighttime, respectively. Then, the ‘test chemical’ of the above Examples 1 and 2 or ‘control chemical’ was applied thereto in an amount of 400, 200, 100, 50, 25, 12, 6, 3 g ai/ha. As a “control chemical”, pyrazolsulfuron ethyl wettable agent (manufactured by Dongbu Fine Chemicals; herein after, referred to as ‘control chemical No. 1’) and flazasulfuron (manufactured by Dongbu HiTek; herein after, referred to as ‘control chemical No. 2’), both sulfonylurea herbicides for a turf grass, were used. Application was carried out by using a track sprayer (R&D Sprayer, USA) equipped with Teejet 8002 nozzle (Spraying Systems Co., USA), and the application amount was adjusted to 2,000 L/ha, which is a typical application amount for a golf course in Korea. Application solution was prepared by diluting the “test chemical” or the “control chemical” with tap water. […] The test was repeated three times in a random arrangement and the results are given in average value of each test (see Table 2 below).

[2] = tested on: Kummerowia striata; experiment: Weed spectrum, greenhouse pot test; format: in vivo; settings: two weeks after application
Outline: (§1)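 Scores reflect visual weed control two weeks after spraying, where 0 means no effect and 100 complete control. Plants grew in a greenhouse at 25˜30° C by day and 15˜25° C by night, with treatment either at sowing or at three-leaf stage.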

[3] = tested on: Poa annua; experiment: Weed spectrum, greenhouse pot test; format: in vivo; settings: two weeks after application
Outline: as §1

[4] = tested on: Trifolium repens; experiment: Weed spectrum, greenhouse pot test; format: in vivo; settings: two weeks after application
Outline: as §1

[5] = tested on: Viola arvensis; experiment: Actual field condition test of Example 2 (turf grass field); format: in vivo; settings: 50 g ai/ha
Method: The test chemical of the Example 2 was applied to a turf grass field, in which Viola arvensis as a representative hard-to-control perennial weed is thriving predominantly, to evaluate a weed control effect of the compound. The experiment was carried out from May to June, 2007 in the turf grass field within Korea Research Institute of Bioscience and Biotechnology (52, Ueun-dong, Yusong-gu, Daejon, South Korea). Fourteen days after the chemical application, the turf grass was cut once.

[6] = tested on: cool season turfgrass; experiment: Turf grass selectivity, summary for cool season turfgrass; format: in vivo; settings: application amount as low as 3 g ai/ha
Source text: Turf mats of Zoysia grass, bentgrass, Kentucky bluegrass, or perennial rye grass known as cool season turfgrass or western grass were purchased and cut into a piece having 10 cm×20 cm size. Then, each piece was transplanted in a rectangular plastic pot (surface area of 300 cm^2) in which sandy loam and mixed top soil (Boo-Nong Top Soil No. 3, for horticultural use) are filled in 1:1 ratio. After the transplantation, the grasses were cut once a week to maintain the blade height at 0.5-1.0 cm and cultivated for one month in a green house of which temperature was kept at 25˜30° C. for daytime and 15˜25° C. for nighttime, respectively. Then, the ‘test chemical’ of the above Examples 1 and 2 or ‘control chemical’ was applied thereto in an amount of 400, 200, 100, 50, 25, 12, 6, 3 g ai/ha. As a “control chemical”, pyrazolsulfuron ethyl wettable agent (manufactured by Dongbu Fine Chemicals; herein after, referred to as ‘control chemical No. 1’) and flazasulfuron (manufactured by Dongbu HiTek; herein after, referred to as ‘control chemical No. 2’), both sulfonylurea herbicides for a turf grass, were used. Application was carried out by using a track sprayer (R&D Sprayer, USA) equipped with Teejet 8002 nozzle (Spraying Systems Co., USA), and the application amount was adjusted to 2,000 L/ha, which is a typical application amount for a golf course in Korea. […]

[7] = tested on: warm season turf grass; settings: background statement; zoysiagrass, Burmudagrass; cited from earlier work
[8] = tested on: cool season turf grass; settings: background statement; creeping bentgrass, Kentucky bluegrass; cited from earlier work

Compound: COc1cc(OC)nc(NC(=O)NS(=O)(=O)c2ncccc2C(F)(F)F)n1 [Control chemical No. 2, Flazasulfuron, reference compound]
- phytotoxicity (visual assessment 0-10) ([1]; 3 g ai/ha, 2 weeks): 10
- phytotoxicity (visual assessment 0-10) ([1]; 3 g ai/ha, 4 weeks): 10
- phytotoxicity (visual assessment 0-10) ([1]; 6 g ai/ha, 2 weeks): 10
- phytotoxicity (visual assessment 0-10) ([1]; 6 g ai/ha, 4 weeks): 10
- phytotoxicity (visual assessment 0-10) ([1]; 12 g ai/ha, 2 weeks): 10
- phytotoxicity (visual assessment 0-10) ([1]; 12 g ai/ha, 4 weeks): 10
- phytotoxicity (visual assessment 0-10) ([1]; 25 g ai/ha, 2 weeks): 10
- phytotoxicity (visual assessment 0-10) ([1]; 25 g ai/ha, 4 weeks): 10
- phytotoxicity (visual assessment 0-10) ([1]; 50 g ai/ha, 2 weeks): 10
- phytotoxicity (visual assessment 0-10) ([1]; 50 g ai/ha, 4 weeks): 10
- phytotoxicity (visual assessment 0-10) ([1]; 100 g ai/ha, 2 weeks): 10
- phytotoxicity (visual assessment 0-10) ([1]; 100 g ai/ha, 4 weeks): 10
- phytotoxicity (visual assessment 0-10) ([1]; 200 g ai/ha, 2 weeks): 10
- phytotoxicity (visual assessment 0-10) ([1]; 200 g ai/ha, 4 weeks): 10
- phytotoxicity (visual assessment 0-10) ([1]; 400 g ai/ha, 2 weeks): 10
- phytotoxicity (visual assessment 0-10) ([1]; 400 g ai/ha, 4 weeks): 10
- efficacy (0-100 scale) ([2]; Post-emergence, 12 g ai/ha): 80
- efficacy (0-100 scale) ([2]; Post-emergence, 25 g ai/ha): 90
- efficacy (0-100 scale) ([2]; Post-emergence, 50 g ai/ha): 100
- efficacy (0-100 scale) ([2]; Post-emergence, 100 g ai/ha): 100
- efficacy (0-100 scale) ([2]; Pre-emergence, 12 g ai/ha): 80
- efficacy (0-100 scale) ([2]; Pre-emergence, 25 g ai/ha): 90
- efficacy (0-100 scale) ([2]; Pre-emergence, 50 g ai/ha): 100
- efficacy (0-100 scale) ([2]; Pre-emergence, 100 g ai/ha): 100
- efficacy (0-100 scale) ([3]; Post-emergence, 12 g ai/ha): 40
- efficacy (0-100 scale) ([3]; Post-emergence, 25 g ai/ha): 70
- efficacy (0-100 scale) ([3]; Post-emergence, 50 g ai/ha): 80
- efficacy (0-100 scale) ([3]; Post-emergence, 100 g ai/ha): 90
- efficacy (0-100 scale) ([3]; Pre-emergence, 12 g ai/ha): 40
- efficacy (0-100 scale) ([3]; Pre-emergence, 25 g ai/ha): 70
- efficacy (0-100 scale) ([3]; Pre-emergence, 50 g ai/ha): 100
- efficacy (0-100 scale) ([3]; Pre-emergence, 100 g ai/ha): 100
- efficacy (0-100 scale) ([4]; Post-emergence, 12 g ai/ha): 80
- efficacy (0-100 scale) ([4]; Post-emergence, 25 g ai/ha): 100
- efficacy (0-100 scale) ([4]; Post-emergence, 50 g ai/ha): 100
- efficacy (0-100 scale) ([4]; Post-emergence, 100 g ai/ha): 100
- efficacy (0-100 scale) ([4]; Pre-emergence, 12 g ai/ha): 70
- efficacy (0-100 scale) ([4]; Pre-emergence, 25 g ai/ha): 80
- efficacy (0-100 scale) ([4]; Pre-emergence, 50 g ai/ha): 100
- efficacy (0-100 scale) ([4]; Pre-emergence, 100 g ai/ha): 100
- Effect on Viola arvensis ([5]; After 7 days): 20
- Effect on Viola arvensis ([5]; After 14 days): 50
- phytotoxicity to cool season turfgrass [6]: complete withering; also recorded: completely withered
- safety to warm season turf grass [7]: have a safety
- safety to cool season turf grass [8]: no safety
